Test results from patent publication US20260060907A1, “GADUSOL-CONTAINING SUNSCREEN FORMULATIONS” (ARCAEA, LLC, priority 2022, published 2026).

Tests used:
erythrocytes = assay: Cell-based antioxidant protection in erythrocytes (CAP-e) assay; conditions: for lysis of the cells: highest dose (3.3 mg/ml), erythrocytes
Procedure: The cell-based antioxidant protection in erythrocytes (CAP-e) assay (Honzel et. al., 2008, and Jensen GS. Cell-based antioxidant protection assay, also disclosed in U.S. Pat. No. 8,465,988, incorporated herein in its entirety by this reference) was used. This testing was selected to measure antioxidant power but, in addition, the method ensures that the antioxidant agent crosses the cell's lipid boundary layer so that only intracytoplasmic activity is measured. […] The tested concentrations for both gadusol and the Porphyra-334 ranged from 0.001 to 3.33 mg/mL.

[1] = In vitro SPF determination on VitroSkin substrate (Labsphere UV-1000, absorbance 290-400 nm); format: physicochemical
Procedure: SPF was also evaluated using an in vitro method that utilizes a synthetic/simulated skin as a test substrate. In this regard, VitroSkin® is an advanced testing substrate that effectively mimics the surface properties of human skin. It has been formulated to have topography, pH, critical surface tension, chemical reactivity and ionic strength that is similar to human skin. The procedure for in vitro testing was conducted according to a standard protocol. For testing, the test product was applied in a known amount to the substrate at an application density of 2 mg/cm^2. The in vitro SPF scores were determined using a Labsphere UV-1000 Ultraviolet Transmittance Analyzer. Spectral scans of absorbance of the artificial skin treated with a sample sunscreen formulation were performed in the UV region of 290-400 nm. The in vitro SPF was then calculated using the absorbance scan results. At least 5 in vitro SPF values were recorded for each example formulation and the averages calculated for reporting.
In another example, gadusol was tested by the in vitro method using the Vitroskin substrate in the methodology discussed above. The COS1 formulation having 0.0 and 0.5% (w/w) gadusol and the COS2 formulations were tested with 0, 0.25, 0.5% (w/w) gadusol.

[2] = UV absorbance of the compounds; format: physicochemical; conditions: at 296 nm
Procedure: (§1) Yet further, the inventors have determined that the stability of aqueous gadusol can be improved when stored under acidic conditions. For example, 90% gadusol activity can be retained after 90 days at pH 2.5, where the concentration of gadusol is determined spectrophotometrically at 296 nm where it has an extinction coefficient of 21,800 M^−1 cm^−1. A standardized concentration curve can be used to determine an amount of gadusol in a volume sampled from a test solution at various time periods. Therefore, storage under acidic conditions may be useful for stabilizing gadusol generally, e.g., prior to introduction into a topical formulation. Combining gadusol with another antioxidant may be useful for extending the shelf life or stability of gadusol in a topical formulation.

[3] = In vivo SPF determination (FDA 21 CFR 201.327 SPF test procedure); set-up: species or system human
Procedure: An in vivo SPF determination was conducted according to FDA, 21 CFR Sec. 201.327, subpart (i), SPF Test Procedure, Sunscreen Drug Products for Over-the-Counter Human Use, Final Monograph, Federal Register, Vol. 76, No. 117, Jun. 17, 2011, the disclosure of which is incorporated herein in its entirety by this reference. Each in vivo test for a sunscreen formulation was tested on three different subjects.
For subject enrollment, the test subjects reported to the testing laboratory and received a complete explanation of the study procedures. Those who participated signed a written, witnessed consent form, and a permission to release personal health information form and provided a brief medical history. The technician did a final examination of the subject's back, between the belt-line and shoulder blades and determined their suitability to participate in this study.
A Xenon Arc Solar Simulator lamp, which has a continuous light spectrum in the UVA and UVB range (290-400 nanometers) was utilized for the in vivo light source. The spectral output of the solar simulator was filtered so that it meets the spectral output requirements for testing Sunscreen Drug Products for over-the-counter human use; FDA Final Monograph, 21 CFR Part 201.327 (i)(1), UV Source, Federal Register, Vol. 76, No. 117, Jun. 17, 2011 and the International Sun Protection Factor (SPF) Test Method, May 2006, the disclosure of which is incorporated herein in its entirety by this reference.
For a baseline value, a series of 5 UV radiation doses expressed as Joules/square meter, increasing in 25% increments, was administered to two unprotected separate locations on each test subject's back, just below the shoulder blades and above the belt-line, to determine the initial unprotected MED (MEDu).
The MEDu was administered in the following 5 dose series, with X representing the amount of UV energy projected to produce the test subject's MEDu (Table C).
On Day 2, subjects returned to the testing laboratory within 16 to 24 hours following completion of the MEDu doses for evaluation of their responses, and to determine each subject's unprotected MED (MEDu). A subject's Minimal Erythemal Dose (MED) was the quantity of erythema effective energy, or dose corresponding to the first site that produced the first unambiguous erythema reaction with well-defined borders. The following grading scale used in this study for determining a MED (+) response. • − No perceptible erythemal response • ? […]
MEDp UV Dose was administered by the technician via a series of 5 UV radiation doses expressed as Joules/square meter, as specified in FDA, 21 CFR, Sec. […]

E. coli = assay: Toxicity towards E. coli; format: cell-based
Description: (§2) The amount of gadusol incorporated to provide the intended in vivo sunscreen SPF boosting activity can be from about 0.25, 0.50, 0.75, 1.0, 1.25, 1.50, 1.75, or 2.0% (w/w) in the sunscreen formulation that includes a physical/inorganic sunscreen active material, where any value can form an upper or lower endpoint, as appropriate. Still further, the amount of gadusol in the sunscreen formulation can be from about 0.25 to 2.0% (w/w), or from about 0.5 to 1.0% (w/w). In these, and possibly other amounts, gadusol suitably can provide a safe and effective sunscreen boosting effect when combined with sunscreen active ingredients. […] To summarize these safety tests, the cellular toxicity of gadusol was compared to that of a common sunscreen ingredient, oxybenzone. Vero E6 fibroblasts were used to evaluate toxicity. […] Toxicity towards E. coli was also not found.

[4] = Folin-Ciocalteu antioxidant capacity; format: biochemical; conditions: concentrations ranging from about 0.3 to 10 mg/ml
Comet assay = format: cell-based
Description: as §2

[5] = Stability of aqueous gadusol under acidic conditions (spectrophotometric at 296 nm); format: physicochemical; conditions: after 90 days at pH 2.5
Procedure: as §1

Ames Test = format: cell-based
Description: as §2

Vero E6 fibroblasts = format: cell-based
Description: as §2

Row | SMILES | effect on the protective action of gadusol (CAP-e) (erythrocytes; gadusol and Porphyra-334 combined) | lysis of the cells (erythrocytes) | greater in vitro SPF when added to a composition containing 10% ZnO ([1]; 0.5% (w/w) gadusol) [%] | in vitro absorbance on addition to a 10% ZnO sunscreen formulation ([1]; 0.5% gadusol, from about 290 to about 325 nm, FIG. 6) | in vitro SPF activity of gadusol by itself ([1]; activity of the formulation matrix (1.1) subtracted) | extinction coefficient [2] | antioxidant activity (CAP-e) (erythrocytes; at 0.133 mg/ml) | antioxidant activity (CAP-e) compared with Porphyra-334 (erythrocytes; at about 1 mg/ml) | in vivo SPF, times the SPF conferred by 10% ZnO alone ([3]; 0.5% gadusol (w/w) with 10% ZnO) | in vivo SPF, times the SPF conferred by 10% ZnO alone ([3]; 0.75% gadusol (w/w) with 10% ZnO) [times] | in vivo SPF, times the SPF conferred by 10% ZnO alone ([3]; 1.0% gadusol (w/w) with 10% ZnO) [times] | SPF boost ([3]; gadusol 0.5 to 1% (w/w) in formulation containing 10% ZnO) [%] | Toxicity towards E. coli (E. coli) | antioxidant power (Folin-Ciocalteu) [4] | toxicity in the comet assay (Comet assay) | gadusol activity retained [5] [%] | mutagenicity in the Ames Test (Ames Test) | cellular toxicity compared to oxybenzone (Vero E6 fibroblasts)
1 | COC1=C(NCC(=O)O)C[C@@](O)(CO)CC1=N[C@H](C(=O)O)[C@@H](C)O [Porphyra-334, reference compound] | did not interfere with the protective action of the gadusol | caused some lysis of the cells | – | – | – | – | – | – | – | – | – | – | – | – | – | – | – | –
2 | COC1=C(O)CC(O)(CO)C(O)C1=O (stereo not shown) [gadusol] | – | caused some lysis of the cells | ~50 | significantly more absorbance | 2.5-2.8 SPF units | 21,800 M^−1 cm^−1 | Some in vivo antioxidant activity was seen | significantly more active antioxidant | about 1.35 times | ~1.51 | ~2.0 | 135 to 200 | not found | substantially equivalent to a mycosporine compound from “nori” seaweed | nor was it toxic | 90 | not to be mutagenic | less toxic than oxybenzone
